Assay results published in patent publication US8071300B2, “Drug-phosphorylating enzyme” (Daiichi Sankyo Company, Limited, priority 2006, dated 2011).
Blank lines part the entries; values can stand above or below the compound they belong to.

Key:
human FN3K [1] = target: T1, human FN3K (Homo sapiens, UniProt Q9H479); assay: DMF inhibition of compound 1 phosphorylating activity, hydrophobic interaction column active fraction (Example 6); format: biochemical; details: active fraction of the hydrophobic interaction column (second purification stage, Example 4)
T1 construct: expressed in transfected cells; host or cells: HEK293, transient, hFN3K/pcDNA3.2-DEST; cytoplasmic fraction (lysate supernatant) used
T1 sequence (Q9H479 1-309): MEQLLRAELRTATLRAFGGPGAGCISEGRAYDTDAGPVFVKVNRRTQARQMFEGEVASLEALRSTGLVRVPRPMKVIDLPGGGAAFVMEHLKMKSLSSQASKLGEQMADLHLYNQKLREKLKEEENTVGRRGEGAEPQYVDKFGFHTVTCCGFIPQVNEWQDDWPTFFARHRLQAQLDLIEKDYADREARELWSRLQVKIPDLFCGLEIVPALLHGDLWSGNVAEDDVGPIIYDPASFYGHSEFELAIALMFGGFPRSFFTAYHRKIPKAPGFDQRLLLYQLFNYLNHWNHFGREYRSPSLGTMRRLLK
Protocol: (§1) When 1-deoxy-1-morpholinofructose (DMF; Sigma) was added to the reaction solution, it was added thereto to a final concentration of 1 mM. […] Thereafter, 150 μL of methanol was added to the reaction solution, and the mixture was then filtrated through a filter with a pore diameter of 0.45 μm, so as to terminate the reaction and remove the protein. 10 μL of the filtrate was subjected to a reverse phase chromatography column (TSK-gel ODS-100S; 4.6 mm (diameter)×150 mm (length); Tosoh Corp). Isocratic elution was carried out using 40% acetonitrile comprising 0.1% trifluoroacetic acid at a flow rate of 1 mL/min at a column temperature of 40° C. […] The amount of phosphoric ester of compound 1 generated was measured based on a peak area.

human FN3KRP [2] = target: T2, human FN3KRP (Homo sapiens, UniProt Q9HA64); assay: Compound 1 phosphorylating activity of human erythrocyte fractions in presence and absence of 1 mM DMF (FN3KRP purification, Example 6); format: biochemical
T2 sequence (Q9HA64 1-309): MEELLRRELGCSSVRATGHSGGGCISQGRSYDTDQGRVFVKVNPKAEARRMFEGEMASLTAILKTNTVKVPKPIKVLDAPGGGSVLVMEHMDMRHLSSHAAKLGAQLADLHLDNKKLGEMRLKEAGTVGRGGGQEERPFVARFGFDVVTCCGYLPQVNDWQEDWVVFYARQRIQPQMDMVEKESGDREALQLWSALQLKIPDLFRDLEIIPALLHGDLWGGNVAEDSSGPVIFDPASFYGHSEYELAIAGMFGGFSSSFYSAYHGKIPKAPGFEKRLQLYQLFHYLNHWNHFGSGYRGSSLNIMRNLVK
Protocol: as §1
(§2) For purification, enzyme activity was always measured in the presence and absence of 1 mM DMF, so that the purification was carried out using activity that is not inhibited by DMF as an indicator.
(§3) The ammonium sulfate precipitate obtained in Example 4 was fractionated by each of an anion exchange column (HiPrep Q 16/10 XL, GE Healthcare Biosciences), a dye-binding affinity column (HiTrap Blue HP 1 mL), a cation exchange column (Mono S PC 1.6/5), and a gel filtration column (Superdex 75 PC 3.2/30).

human FN3KRP [3] = assay: as above; format: biochemical
Protocol: as §1, §2, §3

human FN3K [4] = target: T1, human FN3K; assay: Ability of human FN3K cytoplasmic fraction to phosphorylate FTY720 and sphingosine (Example 12); format: biochemical; details: 10 μM substrate, 5 mM ATP, approximately 91 μg cytoplasmic fraction, 37° C., 3 hours
Protocol: (§4) Eighteen 1.5-mL polypropylene tubes were prepared. Components were added to each tube to the following final concentrations, with the total amount set at 250 μL, followed by leaving the obtained solution at rest on ice (100 mM HEPES (pH 7.4), 5 mM magnesium chloride, 5 mM ATP, 1 mM dithiothreitol, 0.5% CHAPS, 10 μM FTY720 or sphingosine, each cytoplasmic fraction obtained in Example 10 in an amount of approximately 91 μg). The obtained mixture was incubated in a hot-water bath at 37° C. for 3 hours, and was then transferred onto ice. 0.5 mL methanol was added to each tube, and mixed with the reaction product. Thereafter, the mixture was preserved at −20° C. until LC/MS/MS measurement was carried out.
(§5) The amount of FTY720 phosphoric ester or SIP generated was analyzed using the following LC/MS/MS system.
(§6) LC system: • HPLC apparatus name: Agilent 1100 series (Agilent Technologies) • Autosampler name: HTC PAL (CTC Analytics)
(§7) MS/MS system: • Apparatus name: API4000 (Applied Biosystems/MDS Sciex)

human FN3KRP [5] = target: T2, human FN3KRP; assay: Ability of human FN3KRP cytoplasmic fraction to phosphorylate FTY720 and sphingosine (Example 12); format: biochemical; parameters: expressed in transfected cells; host or cells: HEK293, transient, hFN3KRP/pcDNA3.1(+)neo; cytoplasmic fraction (lysate supernatant) used; details: 10 μM substrate, 5 mM ATP, approximately 91 μg cytoplasmic fraction, 37° C., 3 hours
Protocol: as §4, §5, §6, §7

human FN3K [6] = target: T1, human FN3K; assay: Phosphorylation of compound 1 and analogs using human FN3K expression cytoplasmic fraction (Example 14); format: biochemical; details: 100 μM substrate, 0.3 mg/mL human FN3K expression cytoplasmic fraction, 5 mM ATP, 37° C., 3 hours
Protocol: (§8) HEK293 cells were inoculated to three 75-cm^2 culture flasks, and they were then cultured until they became 80% confluent. Using a lipofectamine plus reagent (Invitrogen), gene introduction was carried out without plasmid DNA, with 4 μg of hFN3KRP/pcDNA3.1(+)neo, and with 4 μg of hFN3K/pcDNA3.2-DEST, for each of the three flasks. Thereafter, the cells were cultured for approximately 27 hours. Thereafter, the cells were washed with PBS, and 2.5 mL of a cell lysate (100 mM HEPES (pH 7.4), 80% (v/v) CelLytic-M (Sigma), 1 mM dithiothreitol, a single protease inhibitor cocktail for 50 mL (Complete EDTA-free, Roche)) was then added to the cells. Thereafter, the cells were intensively shaken, until all of them were removed. The thus removed cells and the supernatant were recovered, and they were then ultracentrifuged at 20,000×g at 4° C. for 15 minutes. Thereafter, the supernatant was recovered, and aliquots each of 200 μL were frozen in liquid nitrogen. They were preserved at −80° C. until used. […]
(§9) The efficiency of phosphorylating each compound was calculated using the peak areas of phosphoric ester and unreacted substrate, as shown in the following formula. […]
After completion of the reaction, 200 μL of methanol was added to the reaction solution, and the mixture was then stirred. […] The efficiency of phosphorylating each analog was calculated using the formula as shown in Example 13.

rat erythrocytes = assay: Phosphorylation of compound 1 and analogs using rat erythrocytes (Example 15); format: cell-based, Wistar-Imamichi rats; details: 100 μg/mL substrate, 37° C., 3 hours
Protocol: The efficiency of phosphorylating each compound was calculated using the peak areas of phosphoric ester and unreacted substrate, as shown in the following formula. Phosphorylation efficiency (%)=peak area of phosphoric ester/(peak area of phosphoric ester+peak area of unreacted substrate)×100
Erythrocytes were prepared from Wistar-Imamichi rats (purchased from Institute for Animal Reproduction) in the same manner as in Example 1.
Reaction solution: Rat erythrocytes
Reaction substrate: 100 μg/mL
Reaction condition: 37° C., 3 hours
After completion of the reaction, 1 mL of methanol was added to the reaction solution, and the mixture was then stirred. The mixed solution was centrifuged (16,000×g, 5 minutes, 4° C.). The supernatant was centrifuged again (16,000×g, 10 minutes, 4° C.), and 20 μL of a newly obtained supernatant was then subjected to HPLC, so that analysis was carried out under the conditions described in Example 13. The efficiency of phosphorylating each analog was calculated using the formula as shown in Example 13.

human FN3KRP [7] = target: T2, human FN3KRP; assay: Phosphorylation of compound 1 and analogs using human FN3KRP expression cytoplasmic fraction (Example 13); format: biochemical; parameters: expressed in transfected cells; host or cells: HEK293, transient, hFN3KRP/pcDNA3.1(+)neo; cytoplasmic fraction (lysate supernatant) used; details: 100 μM substrate, 0.328 mg/mL human FN3KRP expression cytoplasmic fraction, 5 mM ATP, 37° C., 3 hours
Protocol: as §8, with “used. In addition, a portion of the supernatant was subjected to measurement of protein concentration.” for “used.”
as §9

Compound: O=C(CN1CCOCC1)[C@@H](O)[C@H](O)[C@H](O)CO [DMF, 1-deoxy-1-morpholinofructose]
IC50 (human FN3K [1]): ~1000 nM
remaining activity at 1000 µM (human FN3KRP [2]; 1 mM DMF; 2) anion exchange column): 98%
remaining activity at 1000 µM (human FN3KRP [2]; 1 mM DMF; 3) dye-binding affinity column): 110%
remaining activity at 1000 µM (human FN3KRP [2]; 1 mM DMF; 4) cation exchange column): 98%
Inhibition of enzyme activity by DMF (human FN3KRP [2]; enzyme activity after the second purification step): not inhibited
Remaining activity (human FN3KRP [3]; 1 mM DMF; 1) ammonium sulfate precipitation): 89%
Remaining activity (human FN3KRP [3]; 1 mM DMF, soluble fraction): 81%
Inhibition of compound 1 phosphorylating activity by DMF (human FN3KRP [3]; soluble fraction and re-solubilized ammonium sulfate precipitate): hardly observed

Phosphorylation of substrate (LC/MS/MS) (human FN3K [4]): do not have ability to phosphorylate
Phosphorylation of substrate (LC/MS/MS) (human FN3KRP [5]): do not have ability to phosphorylate
Compound: CCCCCCCCCCCCC/C=C/[C@@H](O)[C@@H](N)CO [sphingosine]

Phosphorylation of substrate (LC/MS/MS) (human FN3K [4]): slightly phosphorylate
Phosphorylation of substrate (LC/MS/MS) (human FN3KRP [5]): slightly phosphorylate
Compound: CCCCCCCCc1ccc(CCC(N)(CO)CO)cc1.Cl [FTY720, 2-Amino-2-[2-(4-octylphenyl)ethyl]propane-1,3-diol hydrochloride]

Phosphorylation efficiency (human FN3K [6]): 0.0%
Phosphorylation efficiency (human FN3KRP [7]): 37.5%
Compound: NC(CO)(CO)CCCc1ccc(Sc2cccc(OCc3ccccc3)c2)cc1Cl [ROX-2127, 2-amino-2-[4-(3-benzyloxyphenylthio)-2-chlorophenyl]propyl-1,3-propanediol]
Phosphorylation efficiency (rat erythrocytes): 31.7%
